Data published in patent publication US20230021483A1, “[…] […] METHOD AND CLASSIFICATION OF PHARMACEUTICAL COMPONENTS BY USING TRANSCRIPTOMES” (National Institutes of Biomedical Innovation, Health and …, priority 2016, published 2023).
“And” between values parts separate entries of the source, which are not always exact repeats. Equal entries are not always repeated.

Legend:
[1] = tested on: preferentially upregulated genes in LV, SP, LN; assay: Z-score-based differential gene expression analysis (adjuvant group- or adjuvant-associated genes, 40 module mapping, TargetMine annotation); format: in vivo, C57BL/6 mice; settings: for Adar 1425405_a_at (Group G1, Modules 20) / Adar 1434268_at (Group G1, Modules 20) / Ddx58 1436562_at (Group G1, Modules 20) / Ddx58 1456890_at (Group G1, Modules 20) / Gm9706///Isg15 1431591_s_at (Group G1, Modules 20) / Ifit1 1450783_at (Group G1, Modules 20) / Ifit3 1449025_at (Group G1, Modules 20) / Irgm1 1418825_at (Group G1, Modules 20) / Mndal 1426906_at (Group G1, Modules 20) / Rsad2 1436058_at (Group G1, Modules 20) / Shisa5 1423986_a_at (Group G1, Modules 20) / Shisa5 1437503_a_at (Group G1, Modules 20) / Stat1 1450033_a_at (Group G1, Modules 20) / Stat1 1450034_at (Group G1, Modules 20) / Tor1aip2 1435526_at (Group G1, Modules 20): IP, LV
From the text: Each sample's FC value was converted into a z-score on a gene basis by using the entire data set for each organ. The Z-score of the triplicates of interest were summed for each adjuvant. For example, the three sample z-score in the LV sample following cdiGMP administration was summed on a gene-by-gene basis, after which the summed scores of >3 genes were selected as relatively preferentially expressed genes in the LV after cdiGMP administration. The following threshold was applied for selections. […] G2^LV: ALM_IP(z>1) & bCD(z>1) & ENDCN(z>1) & FCA(z>1). […] G4^LV: MALP2s(z>3). […] G2^SP: ENDCN_x2+ENDCN_x3(z>2) & ALM_IP(z>3) & bCD(z>3). […] G4^SP: ADX_ID_x2+ADX_ID_x3(z>2) & ADX_IP(z>3) & MALP2s(z>3). […] G2^LN: bCD(z>3) & FCA(z>3). […] G5^LN: K3(z>1.5) & K3SPG_x1+K3SPG_x2(z>1) & D35_x1+D35_x3(z>1). G6^LN: AddaVax(z>3).

liver (LV) = assay: Whole organ transcriptome (GeneChip microarray) of liver 6 h after adjuvant administration: sDEGs, hierarchical clustering; format: in vivo, C57BL/6 mice; settings: liver; for Number of gene probes with statistically significant changes (sDEGs), LV, Down: fold change <0.667, p<0.01, customized PA call=1; for Number of gene probes with statistically significant changes (sDEGs), LV, Down / Number of gene probes with statistically significant changes (sDEGs), LV, Up: 6 h after adjuvant; for Number of gene probes with statistically significant changes (sDEGs), LV, Up: fold change >1.5, p<0.01, customized PA call=1; for adjuvant group (cluster) in LV: key: G1 (interferon signaling); G2 (metabolism of lipids and lipoproteins); G3 (response to stress); G4 (response to wounding); G5 (phosphate-containing compound metabolic process); G6 (phagosome)
[2] = liver (LV), gene group G1, module 20, individual mice x1-x3, route ID/IP/IN

CC(O)COC[C@H]1O[C@@H]2O[C@H]3[C@H](O)[C@@H](O)[C@@H](O[C@H]4[C@H](O)[C@@H](O)[C@@H](O[C@H]5[C@H](O)[C@@H](O)[C@@H](O[C@H]6[C@H](O)[C@@H](O)[C@@H](O[C@H]7[C@H](O)[C@@H](O)[C@@H](O[C@H]8[C@H](O)[C@@H](O)[C@@H](O[C@H]1[C@H](O)[C@H]2O)O[C@@H]8COCC(C)O)O[C@@H]7COCC(C)O)O[C@@H]6COCC(C)O)O[C@@H]5COCC(C)O)O[C@@H]4COCC(C)O)O[C@@H]3COCC(C)O (stereo partly drawn) [bCD, Hydroxypropyl-beta-cyclodextrin]
Adar 1425405_a_at (Group G1, Modules 20) ([1]; sample x1): −0.5
Adar 1434268_at (Group G1, Modules 20) ([1]; sample x1): −0.3
Ddx58 1436562_at (Group G1, Modules 20) ([1]; sample x1): −0.4
Ddx58 1456890_at (Group G1, Modules 20) ([1]; sample x1): −0.6
Gm9706///Isg15 1431591_s_at (Group G1, Modules 20) ([1]; sample x1): −0.5
Ifit1 1450783_at (Group G1, Modules 20) ([1]; sample x1): −0.5
Ifit3 1449025_at (Group G1, Modules 20) ([1]; sample x1): −0.5
Irgm1 1418825_at (Group G1, Modules 20) ([1]; sample x1): −0.5
Mndal 1426906_at (Group G1, Modules 20) ([1]; sample x1): −0.3
Rsad2 1436058_at (Group G1, Modules 20) ([1]; sample x1): −0.5
Shisa5 1423986_a_at (Group G1, Modules 20) ([1]; sample x1): −0.6
Shisa5 1437503_a_at (Group G1, Modules 20) ([1]; sample x1): −0.4
Stat1 1450033_a_at (Group G1, Modules 20) ([1]; sample x1): −0.5
Stat1 1450034_at (Group G1, Modules 20) ([1]; sample x1): −0.5
Tor1aip2 1435526_at (Group G1, Modules 20) ([1]; sample x1): −0.4
Adar 1425405_a_at (Group G1, Modules 20) ([1]; sample x2): −0.4
Adar 1434268_at (Group G1, Modules 20) ([1]; sample x2): −0.4
Ddx58 1436562_at (Group G1, Modules 20) ([1]; sample x2): −0.3
Ddx58 1456890_at (Group G1, Modules 20) ([1]; sample x2): −0.4
Gm9706///Isg15 1431591_s_at (Group G1, Modules 20) ([1]; sample x2): −0.5
Ifit1 1450783_at (Group G1, Modules 20) ([1]; sample x2): −0.5
Ifit3 1449025_at (Group G1, Modules 20) ([1]; sample x2): −0.5
Irgm1 1418825_at (Group G1, Modules 20) ([1]; sample x2): −0.6
Mndal 1426906_at (Group G1, Modules 20) ([1]; sample x2): −0.3
Rsad2 1436058_at (Group G1, Modules 20) ([1]; sample x2): −0.4
Shisa5 1423986_a_at (Group G1, Modules 20) ([1]; sample x2): −0.3
Shisa5 1437503_a_at (Group G1, Modules 20) ([1]; sample x2): −0.3
Stat1 1450033_a_at (Group G1, Modules 20) ([1]; sample x2): −0.6
Stat1 1450034_at (Group G1, Modules 20) ([1]; sample x2): −0.5
Tor1aip2 1435526_at (Group G1, Modules 20) ([1]; sample x2): −0.3
Adar 1425405_a_at (Group G1, Modules 20) ([1]; sample x3): −0.3
Adar 1434268_at (Group G1, Modules 20) ([1]; sample x3): −0.4
Ddx58 1436562_at (Group G1, Modules 20) ([1]; sample x3): −0.1
Ddx58 1456890_at (Group G1, Modules 20) ([1]; sample x3): −0.3
Gm9706///Isg15 1431591_s_at (Group G1, Modules 20) ([1]; sample x3): −0.5
Ifit1 1450783_at (Group G1, Modules 20) ([1]; sample x3): −0.5
Ifit3 1449025_at (Group G1, Modules 20) ([1]; sample x3): −0.5
Irgm1 1418825_at (Group G1, Modules 20) ([1]; sample x3): −0.5
Mndal 1426906_at (Group G1, Modules 20) ([1]; sample x3): −0.5
Rsad2 1436058_at (Group G1, Modules 20) ([1]; sample x3): −0.4
Shisa5 1423986_a_at (Group G1, Modules 20) ([1]; sample x3): −0.3
Shisa5 1437503_a_at (Group G1, Modules 20) ([1]; sample x3): −0.3
Stat1 1450033_a_at (Group G1, Modules 20) ([1]; sample x3): −0.5
Stat1 1450034_at (Group G1, Modules 20) ([1]; sample x3): −0.5
Tor1aip2 1435526_at (Group G1, Modules 20) ([1]; sample x3): −0.6
Z score of gene expression, Adar (probe 1425405_a_at) [1, 2]: −0.4 and −0.6 and −0.7
Z score of gene expression, Adar (probe 1434268_at) [1, 2]: −0.1 and −0.5 and −0.3
Z score of gene expression, Ddx58 (probe 1436562_at) [1, 2]: −0.7
Z score of gene expression, Ddx58 (probe 1456890_at) [1, 2]: −0.6 and −0.7 (2×)
Z score of gene expression, Eif2ak2 (probe 1422005_at) [1, 2]: −0.4 and −0.6 and −0.5
Z score of gene expression, G3bp2 (probe 1421323_a_at) [1, 2]: −0.3 (2×) and −0.4
Z score of gene expression, Gm9706///Isg15 (probe 1431591_s_at) [1, 2]: −0.5
Z score of gene expression, H2-T10///H2-T22///H2-T9 (probe 1449875_s_at) [1, 2]: −0.6 (2×) and −0.8
Z score of gene expression, Ifih1 (probe 1426276_at) [1, 2]: −0.5 and −0.6 (2×)
Z score of gene expression, Ifit1 (probe 1449025_at) [1, 2]: −0.5
Z score of gene expression, Ifit1 (probe 1450783_at) [1, 2]: −0.5
Z score of gene expression, Irf7 (probe 1417244_a_at) [1, 2]: −0.4 (2×) and −0.5
Z score of gene expression, Irgm1 (probe 1418825_at) [1, 2]: −0.5 and −0.7 and −0.6
Z score of gene expression, Mndal (probe 1426906_at) [1, 2]: −0.5 and −0.6 (2×)
Z score of gene expression, Pml (probe 1448757_at) [1, 2]: −0.6 and −0.7 (2×)
Z score of gene expression, Pml (probe 1456103_at) [1, 2]: −0.6 (2×) and −0.5
Z score of gene expression, Rnf213 (probe 1455500_at) [1, 2]: −0.5 and −0.6 (2×)
Z score of gene expression, Rsad2 (probe 1436058_at) [1, 2]: −0.5
Z score of gene expression, Shisa5 (probe 1423986_a_at) [1, 2]: −0.6 and −0.7 and −0.8
Z score of gene expression, Shisa5 (probe 1437503_a_at) [1, 2]: −0.4 and −0.7 and −0.5
Z score of gene expression, Stat1 (probe 1450033_a_at) [1, 2]: −0.6
Z score of gene expression, Stat1 (probe 1450034_at) [1, 2]: −0.5 and −0.6 (2×)
Z score of gene expression, Tdrd7 (probe 1426716_at) [1, 2]: −0.7 and −1 and −0.9
Z score of gene expression, Tor1aip2 (probe 1418115_s_at) [1, 2]: −0.2 and −0.7 and −0.6
Z score of gene expression, Tor1aip2 (probe 1418116_at) [1, 2]: −0.4 and −0.8 and −0.6
Z score of gene expression, Tor1aip2 (probe 1435526_at) [1, 2]: −0.4 (2×) and −0.7
Z score of gene expression, Trim12a (probe 1437432_a_at) [1, 2]: −0.5
Z score of gene expression, Uba7 (probe 1426970_a_at) [1, 2]: −0.6 (2×) and −0.7
adjuvant group (cluster) in LV (liver (LV); hierarchical clustering): G2
Number of gene probes with statistically significant changes (sDEGs), LV, Down (liver (LV); i.d. administration): 315
Number of gene probes with statistically significant changes (sDEGs), LV, Up (liver (LV); i.d. administration): 107
Number of gene probes with statistically significant changes (sDEGs), LV, Down (liver (LV); i.p. administration): 20
Number of gene probes with statistically significant changes (sDEGs), LV, Up (liver (LV); i.p. administration): 14
